Reference: patent publication US11104690B2, “Indazole derivatives useful as inhibitors of diacylglyceride O-acyltransferase 2” (Merck Sharp & Dohme Corp., priority 2016, dated 2021)

target: Human DGAT2 (Homo sapiens (Human), UniProt Q96PD7); experiment: DGAT2 Enzymatic Activity Assay (triolein formation, LC/MS/MS); type: biochemical; conditions: hDGAT2 Sf-9 membrane prep; 25 μM diolein, 10 μM oleoyl-CoA; room temperature
Method in brief: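 Triolein product, measured by LC/MS/MS as a ratio to internal standard, gave % inhibition and 4-parameter IC50. Reaction: 25 μM diolein, 10 μM oleoyl-CoA, 10 ng/μL hDGAT2 Sf-9 membrane, 100 mM Tris.Cl pH 7.0, 20 mM MgCl2, 5% ethanol, room temperature.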

Chain of Human DGAT2 (Q96PD7 whole entry): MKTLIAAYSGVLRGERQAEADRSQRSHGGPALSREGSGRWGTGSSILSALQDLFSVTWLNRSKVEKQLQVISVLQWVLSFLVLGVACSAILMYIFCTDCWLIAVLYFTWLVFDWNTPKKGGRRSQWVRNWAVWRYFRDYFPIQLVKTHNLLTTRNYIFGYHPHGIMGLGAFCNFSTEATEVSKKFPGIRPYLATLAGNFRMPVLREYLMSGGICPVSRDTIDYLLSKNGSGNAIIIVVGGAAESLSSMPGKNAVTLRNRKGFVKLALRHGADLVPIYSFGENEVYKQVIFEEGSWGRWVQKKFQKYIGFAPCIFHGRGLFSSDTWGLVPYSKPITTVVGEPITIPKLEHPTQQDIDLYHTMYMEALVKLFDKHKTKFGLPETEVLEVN

| Compound | IC50 [µM] |
| --- | --- |
| O=C(Nc1ccc(C(F)(F)F)nc1)c1ccc2c(-c3ccccc3Cl)nn(-c3ccc(F)cc3)c2c1 [Example 10, 3-(2-chlorophenyl)-1-(4-fluorophenyl)-N-[6-(trifluoromethyl)pyridin-3-yl]-1H-indazole-6-carboxamide] | 0.608 |
| CC(C)n1nc(-c2ccccc2Cl)c2ccc(C(=O)NC3CCS(=O)(=O)C3)cc21 (stereo not drawn) [Example 169, 3-(2-chlorophenyl)-N-(1,1-dioxidotetrahydrothiophen-3-yl)-1-(1-methylethyl)-1H-indazole-6-carboxamide] | 0.364 |
| CC1(NC(=O)c2ccc3c(-c4ccccc4Cl)nn(-c4nnc(C(F)(F)F)s4)c3c2)CCS(=O)(=O)C1 (racemic) [Example 182, 3-(2-chlorophenyl)-N-(3-methyl-1,1-dioxidotetrahydrothiophen-3-yl)-1-[5-(trifluoromethyl)-1,3,4-thiadiazol-2-yl]-1H-indazole-6-carboxamide] | 0.371 |
| CN(C)S(=O)(=O)CCNC(=O)c1ccc2c(-c3ccccc3Cl)nn(-c3ccc(F)cc3)c2c1 [Example 25, 3-(2-chlorophenyl)-N-[2-(dimethylsulfamoyl)ethyl]-1-(4-fluorophenyl)-1H-indazole-6-carboxamide] | 0.558 |
| CC1(NC(=O)c2ccc3c(-c4ccccc4Cl)nn(-c4nnc(C(C)(C)C)s4)c3c2)CCS(=O)(=O)C1 (racemic) [Example 183, 1-(5-tert-butyl-1,3,4-thiadiazol-2-yl)-3-(2-chlorophenyl)-N-(3-methyl-1,1-dioxidotetrahydrothiophen-3-yl)-1H-indazole-6-carboxamide] | 0.46 |
| CN1CCC(NC(=O)c2ccc3c(-c4ccccc4Cl)nn(-c4ccc(F)cc4)c3c2)C1=O (racemic) [Example 6, 3-(2-chlorophenyl)-1-(4-fluorophenyl)-N-(1-methyl-2-oxopyrrolidin-3-yl)-1H-indazole-6-carboxamide] | 0.686 |
| O=C(NC1CNCCS(=O)(=O)C1)c1ccc2c(-c3ccccc3Cl)nn(-c3ccc(F)cc3)c2c1 (racemic) [Example 102, 3-(2-chlorophenyl)-N-(1,1-dioxido-1,4-thiazepan-6-yl)-1-(4-fluorophenyl)-1H-indazole-6-carboxamide] | 0.179 |
| O=C(NCC1(O)CC1)c1ccc2c(-c3ccccc3Cl)nn(-c3ccc(F)cc3)c2c1 [Example 114, 3-(2-chlorophenyl)-1-(4-fluorophenyl)-N-[(1-hydroxycyclopropyl)methyl]-1H-indazole-6-carboxamide] | 0.627 |
| C[C@@H](NC(=O)c1ccc2c(-c3ccccc3Cl)nn(-c3ccc(F)cc3)c2c1)c1ccc(C(F)(F)F)[n+]([O-])c1 [Example 3, 3-(2-chlorophenyl)-1-(4-fluorophenyl)-N-{(1R)-1-[1-oxido-6-(trifluoromethyl)pyridin-3-yl]ethyl}-1H-indazole-6-carboxamide] | 0.155 |
| CC1(NC(=O)c2ccc3c(-c4ccnc(C(F)(F)F)c4)nn(-c4ccc(F)cc4)c3c2)CCS(=O)(=O)C1 (single isomer, unassigned) [Example 159-A, 1-(4-fluorophenyl)-N-(3-methyl-1,1-dioxidotetrahydrothiophen-3-yl)-3-[2-(trifluoromethyl)pyridin-4-yl]-1H-indazole-6-carboxamide] | 0.469 |
| CC1(NC(=O)c2ccc3c(-c4ccccc4Cl)nn(-c4ncc(F)cn4)c3c2)CCS(=O)(=O)C1 (racemic) [Example 181, 3-(2-chlorophenyl)-1-(5-fluoropyrimidin-2-yl)-N-(3-methyl-1,1-dioxidotetradioxidotetradioxido-tetradioxidotetra-hydrothiophen-3-yl)-1H-indazole-6-carboxamide] | 0.391 |
| N#CC1(NC(=O)c2ccc3c(-c4ccccc4Cl)nn(-c4ccc(F)cc4)c3c2)CC1 [Example 105, 3-(2-chlorophenyl)-N-(1-cyanocyclopropyl)-1-(4-fluorophenyl)-1H-indazole-6-carboxamide] | 0.139 |
| O=C(NCc1ccccn1)c1ccc2c(-c3ccccc3Cl)nn(-c3ccc(F)cc3)c2c1 [Example 32, 3-(2-chlorophenyl)-1-(4-fluorophenyl)-N-(pyridin-2-ylmethyl)-1H-indazole-6-carboxamide] | 0.495 |
| CC1(NC(=O)c2ccc3c(-c4cc(C(N)=O)ccc4Cl)nn(-c4ccc(F)cc4)c3c2)CCS(=O)(=O)C1 (single isomer, unassigned) [Example 121-A, 3-(5-carbamoyl-2-chlorophenyl)-1-(4-fluorophenyl)-N-(3-methyl-1,1-dioxidotetrahydrothiophen-3-yl)-1H-indazole-6-carboxamide] | 0.132 |
| O=C(NC(CO)(CO)CO)c1ccc2c(-c3ccccc3Cl)nn(-c3ccc(F)cc3)c2c1 [Example 85, 3-(2-chlorophenyl)-1-(4-fluorophenyl)-N-[2-hydroxy-1,1-bis(hydroxymethyl)ethyl]-1H-indazole-6-carboxamide] | 0.432 |
| N#Cc1cccc(-c2nn(-c3ccc(F)cc3)c3cc(C(=O)NC4CCS(=O)(=O)C4)ccc23)c1 (stereo not drawn) [Example 116, 3-(3-cyanophenyl)-N-(1,1-dioxidotetrahydrothiophen-3-yl)-1-(4-fluorophenyl)-1H-indazole-6-carboxamide] | 0.359 |

These reach a lower IC50. Values come first.

| IC50 [µM] | Compound |
| --- | --- |
| 0.079 | O=C(NCc1cnc(C(F)(F)F)nc1)c1ccc2c(-c3ccccc3Cl)nn(-c3ccc(F)cc3)c2c1 [Example 49, 3-(2-chlorophenyl)-1-(4-fluorophenyl)-N-{[2-(trifluoromethyl)pyrimidin-5-yl]methyl}-1H-indazole-6-carboxamide] |
| 0.078 | CC(NC(=O)c1ccc2c(-c3ccccc3Cl)nn(-c3ccc(F)cc3)c2c1)c1c[nH]cn1 (racemic) [Example 14, 3-(2-chlorophenyl)-1-(4-fluorophenyl)-N-[1-(1H-imidazol-4-yl)ethyl]-1H-indazole-6-carboxamide] |
| 0.075 | CC1(NC(=O)c2ccc3c(-c4ccccc4Cl)nn(-c4ccccn4)c3c2)CCS(=O)(=O)C1 (single isomer, unassigned) [Example 174-B, 3-(2-chlorophenyl)-N-(3-methyl-1,1-dioxidotetrahydrothiophen-3-yl)-1-pyridin-2-yl-1H-indazole-6-carboxamide] |
| 0.065 | O=C(NCC1CCS(=O)(=O)C1)c1ccc2c(-c3ccccc3Cl)nn(-c3ccc(F)cc3)c2c1 (racemic) [Example 29, 3-(2-chlorophenyl)-N-[(1,1-dioxidotetrahydrothiophen-3-yl)methyl]-1-(4-fluorophenyl)-1H-indazole-6-carboxamide] |
| 0.065 | O=C(NC1CCS(=O)(=O)C1)c1ccc2c(-c3cccnc3Cl)nn(-c3ccc(F)cc3)c2c1 (single isomer, unassigned) [Example 135-A, 3-(2-chloropyridin-3-yl)-N-(1,1-dioxidotetrahydrothiophen-3-yl)-1-(4-fluorophenyl)-1H-indazole-6-carboxamide] |
| 0.045 | O=C(N[C@H](CO)c1ccc(C(F)(F)F)nc1)c1ccc2c(-c3ccccc3Cl)nn(-c3ccc(F)cc3)c2c1 [Example 5, 3-(2-chlorophenyl)-1-(4-fluorophenyl)-N-{(1S)-2-hydroxy-1-[6-(trifluoromethyl)pyridin-3-yl]ethyl}-1H-indazole-6-carboxamide] |
| 0.032 | O=C(NCCS(=O)(=O)NC1CCCCC1)c1ccc2c(-c3ccccc3Cl)nn(-c3ccc(F)cc3)c2c1 [Example 53, 3-(2-chlorophenyl)-N-[2-(cyclohexylsulfamoyl)ethyl]-1-(4-fluorophenyl)-1H-indazole-6-carboxamide] |
| 0.025 | O=C(NC1CCS(=O)(=O)C1)c1ccc2c(-c3c(F)cccc3F)nn(-c3ccc(F)cc3)c2c1 (single isomer, unassigned) [Example 132-A, 3-(2,6-difluorophenyl)-N-(1,1-dioxidotetrahydro-thiophen-3-yl)-1-(4-fluorophenyl)-1H-indazole-6-carboxamide] |
| 0.011 | O=C(NC1CCS(=O)(=O)C1)c1ccc2c(-c3cccc(C4CC4)c3)nn(-c3ccc(F)cn3)c2c1 (single isomer, unassigned) [Example 126-A, 3-(3-cyclopropylphenyl)-N-(1,1-dioxidotetrahydrothiophen-3-yl)-1-(5-fluoropyridin-2-yl)-1H-indazole-6-carboxamide] |
| 0.0084 | CC1(NC(=O)c2ccc3c(-c4cc(C#N)ccc4Cl)nn(-c4ccc(F)cc4)c3c2)CCS(=O)(=O)C1 (single isomer, unassigned) [Example 119-A, 3-(2-chloro-5-cyanophenyl)-1-(4-fluorophenyl)-N-(3-methyl-1,1-dioxidotetrahydrothiophen-3-yl)-1H-indazole-6-carboxamide] |
| 0.0083 | CC1(NC(=O)c2ccc3c(-c4ccccc4Cl)nn(-c4ccc(F)cc4)c3c2)CCS(=O)(=O)C1 (single isomer, unassigned) [Example 1-B, 3-(2-chlorophenyl)-1-(4-fluorophenyl)-N-(3-methyl-1,1-dioxidotetrahydrothiophen-3-yl)-1H-indazole-6-carboxamide] |
| 0.008 | CC(C)[C@@H](CO)NC(=O)c1ccc2c(-c3ccccc3Cl)nn(-c3ccc(F)cc3)c2c1 [Example 69, 3-(2-chlorophenyl)-1-(4-fluorophenyl)-N-[(1S)-1-(hydroxymethyl)-2-methylpropyl]-1H-indazole-6-carboxamide] |
| 0.007 | CC1(NC(=O)c2ccc3c(-c4cccc(-n5cccn5)c4)nn(-c4ccc(F)cc4)c3c2)CCS(=O)(=O)C1 (racemic) [Example 165, 1-(4-fluorophenyl)-N-(3-methyl-1,1-dioxidotetrahydrothiophen-3-yl)-3-[3-(1H-pyrazol-1-yl)phenyl]-1H-indazole-6-carboxamide] |
| 0.0055 | N#Cc1ccc(Cl)c(-c2nn(-c3ccc(F)cc3)c3cc(C(=O)NC4(CO)CCC4)ccc23)c1 [Example 118, 3-(2-chloro-5-cyanophenyl)-1-(4-fluorophenyl)-N-[1-(hydroxymethyl)cyclobutyl]-1H-indazole-6-carboxamide] |
